{
  "source": "patent US20060263881A1",
  "about": "“Methods of expanding and selecting disease associated T-Cells” (priority 1998, published 2006)",
  "key": {"[1]": {"test_system": "long term cultured gut T-cell cultures C1x, C2x, C4.2", "assay_type": "cell-based, human"}, "[2]": {"test_system": "in vivo activated gut T-lymphocytes (primary cultures C11.3, C12.1, C8.1, C8.3) from patients with Crohn's disease", "assay_type": "cell-based, human", "conditions": "24 h"}, "[3]": {"test_system": "human T-cell lines", "assay": "Cytolysis after addition of Infliximab and incubation with fresh human serum (complement)", "assay_type": "cell-based", "conditions": "versus murine SP2/O myeloma cell results"}, "[4]": {"test_system": "gut T-cell cultures from patients with Crohn's disease"}, "[5]": {"test_system": "transmembrane TNFα on SP2/O myeloma cells", "conditions": "murine SP2/O myeloma cells with cleavage-resistant transmembrane TNFα; cited from earlier work"}, "[6]": {"test_system": "gut T-cell cultures from patients with Crohn's disease", "assay_type": "cell-based, human"}},
  "note": "“And” between values parts separate entries of the source, which are not always exact repeats. Equal entries are not always repeated.",
  "data": [
    {"substance": "Infliximab: chimeric TNFα antibody with high avidity for transmembrane TNFα (obtained from Centocor)", "values": [
      {"measurement": "SEA induced cytokine production after addition of Infliximab (in words)", "setting": "[1]", "value": "reduced"},
      {"measurement": "Reduction of IFNγ production by Infliximab", "setting": "[2]", "value": "68% and 43% and 49% and 56%"},
      {"measurement": "Reduction of TNFα production by Infliximab", "setting": "[2]", "value": 97, "unit": "%"},
      {"measurement": "Complement activation / cytolysis by binding of Infliximab (in words)", "setting": "[3]", "value": "could not confirm"},
      {"measurement": "Amount of propidium iodide and Annexin-FITC positive cells compared with SEA alone (in words)", "setting": "[4]", "value": "did not increase"},
      {"measurement": "Induction of apoptosis (in words)", "setting": "[4]", "value": "did not induce any apoptosis"},
      {"measurement": "Infliximab molecules bound per cell (Scatchard analyses)", "setting": "[5]", "value": "about 35000 molecules per cell"},
      {"measurement": "Proliferation rate (in words)", "setting": "[6]", "value": "did not change"}
    ]}
  ]
}
